From US9289509B2, “Uses of immunoconjugates targeting CD138” (Biotest AG, priority 2009, dated 2016)

Tests used:
[1] = cited from earlier work
[2] = system: MOLP-8 human multiple myeloma xenografts; experiment: MOLP-8 xenograft in CB.17 SCID mice, single bolus iv (Xenograft Mouse Experiments A, Part I); type: in vivo; details: nBT062 […], all others 250 μg/kg (maytansinoid)
Protocol: The conjugates were evaluated in a CD138-positive xenograft model (MOLP-8) of human multiple myeloma in severe combined immunodeficient (SCID) mice.
In these mice, subcutaneous tumors were established (female CB.17 SCID mice) by inoculation with MOLP-8 cell suspensions. Treatment with a single bolus intravenous injection was conducted when tumor volumes reached an average 113 mm^3. Changes in tumor volume and body weight were monitored twice per week.
Each mouse was inoculated with 1×10^7 MOLP-8 cells subcutaneously into the area under the right shoulder. The total volume was 0.2 ml per mouse, in which the ratio of serum-free medium to matrigel (BD Bioscience, Bedford, Mass.) was 1/1 (v/v). Prior to treatment, the xenograft tumors were monitored daily and were allowed to become established.
Eleven days after tumor cell inoculation, 42 mice were selected based on tumor volumes and body weights. […] The forty-two mice were randomly divided into seven groups (A-G) of six animals each based on tumor volume.
Each of six mice in Group A received 200 μl of PBS as vehicle control.
All agents were intravenously administered as a single bolus injection through a lateral tail vein with a 1 ml syringe fitted with a 27 gauge, ½ inch needle.

RPMI 8226 = experiment: Combination with BT062 in cell lines (Chou and Talalay median effect analysis); type: cell-based; details: RPMI 8226 cells
Protocol: Combination studies in xenograph mouse models were preceded by studies in cell lines. […] Here, IC50 values for the cytotoxic effects for each drug and each cell line are calculated, and then IC50 ratios for each drug pair. The cells were then exposed to dilution series of either these drug mixtures, or the drugs alone. Experimental data were analyzed using the CompuSyn software (ComboSyn, Inc., Paramus, N.J.). Combination Indexes (CI) for each independent experiment were calculated and reported separately. In the analysis, CI less than 1, equal to 1 and more than 1 indicates synergy, additivity and antagonism, respectively. According to the classification of T. C.

MOLP8 = experiment: as above; type: cell-based, human; details: MOLP8 cells
[3] = system: MOLP8 multiple myeloma cells; experiment: MOLP8 xenograft: BT062 and VELCADE combination therapy; type: in vivo, mouse; details: for Fractional tumor volume (FTV): Velcade alone, dosed days 1, 4, 8 and 11
MOLP-8 tumor xenografts = details: 450 μg/kg dose; mean time to reach 160 mm^3 minus control
[4] = system: CD56-positive multiple myeloma; details: 1 patient each at 60, 90 and 112 mg/m^2/week; heavily pretreated; cited from earlier work
[5] = Velcade 1 mg/kg days 1, 4, 8, 11

Q: Which “cytotoxicity relative to maytansine” value ([1]; more cytotoxic than maytansine) does the source give for COc1cc2cc(c1Cl)N(C)C(=O)C[C@H](OC(=O)[C@H](C)N(C)C(=O)CCS)[C@]1(C)O[C@H]1[C@H](C)[C@@H]1C[C@@](O)(NC(=O)O1)[C@H](OC)/C=C/C=C(\C)C2 [DM1, N^2-deacetyl-N^2-(3-mercapto-1-oxopropyl)-maytansine] here?
A: The value was 3- to 10 fold.

Q: Which “effect on tumor growth” value [2] does the source give for COc1cc2cc(c1Cl)N(C)C(=O)C[C@H](OC(=O)[C@H](C)N(C)C(=O)CCC(C)(C)S)[C@]1(C)O[C@H]1[C@H](C)[C@@H]1C[C@@](O)(NC(=O)O1)[C@H](OC)/C=C/C=C(\C)C2 [DM4, N^2′-deacetyl-N^2′-(4-methyl-4-mercapto-1-oxopentyl)-maytansine, reference compound] here?
A: Its value is “did not cause any significant inhibition of tumor growth”.

Q: With Nc1cccc2c1CN(C1CCC(=O)NC1=O)C2=O (centres unmarked) [Lenalidomide] as the molecule, how does the “estimate of synergy, drug combined with BT062” value (shortened to “estimate of synergy”) (RPMI 8226) read?
A: Its value is “Synergistic”.

Q: Which “estimate of synergy” value (MOLP8) does the source give for O=C1CCC(N2C(=O)c3ccccc3C2=O)C(=O)N1 (stereo not drawn) [Thalidomide, α-(N-phthalimido) glutarimide] here?
A: The value was “antagonistic effect”.

Q: Which “effect on tumor volume” value ([3]; VELCADE treatment alone (FIG. 29)) does the source give for CC(C)C[C@H](NC(=O)[C@H](Cc1ccccc1)NC(=O)c1cnccn1)B(O)O [Velcade, reference compound] here?
A: The value was “no effect on the tumor volume”.

Q: What about the “(T-C)” value [3, 5] of the same molecule?
A: Its value is 0.5 days.

Q: What about the “Regressions Complete” value [3, 5] of the same molecule?
A: The value was 0/6.

Q: And the “Regressions Partial” value [3, 5]?
A: Its value is 0/6.

Q: And the Result [3, 5]?
A: The Result was “Inactive”.

Q: And the “T/C (%)” value [3, 5]?
A: The value was 100%.

Q: And the “Tumor free survivors day 67” value [3, 5]?
A: The value was 0/6.

Q: What about the log cell kill [3, 5] of the same molecule?
A: The log cell kill was 0.0.

Q: What about the “Fractional tumor volume (FTV)” value ([3]; day 14) of the same molecule?
A: Its value is 0.84.

Q: What about the “Fractional tumor volume (FTV)” value ([3]; day 18) of the same molecule?
A: Its value is 0.96.

Q: What about the “Fractional tumor volume (FTV)” value ([3]; day 21) of the same molecule?
A: The value was 0.80.

Q: And the “Fractional tumor volume (FTV)” value ([3]; day 25)?
A: The value was 0.95.

Q: And the “combination effect with BT062 in xenograft model” value ([3]; day 25, all BT062 dose regimens)?
A: The value was “synergistic”.

Q: And the “estimate of synergy” value (MOLP8; listed as Bortezomib)?
A: Its value is “Slightly antagonistic”.

Q: And the “estimate of synergy” value (MOLP8; listed as bortezomib)?
A: The value was “antagonistic effect”.

Q: Which “cytotoxicity relative to Vinca alkaloids or taxol” value ([1]; higher than anti-cancer drugs in clinical use that affect tubulin polymerization) does the source give for COc1cc2cc(c1Cl)N(C)C(=O)C[C@H](OC(=O)[C@H](C)N(C)C(C)=O)[C@]1(C)O[C@H]1[C@H](C)[C@@H]1C[C@@](O)(NC(=O)O1)[C@H](OC)/C=C/C=C(\C)C2 [maytansine] here?
A: Its value is 200-1000 fold.

Q: For B-B4-SPP-DM1 [reference compound], which “effect on tumor growth” value [2] is on record?
A: Its value is “marked delay in tumor growth”.

Q: With nBT062-DM1 as the molecule, how does the “TGD (tumor growth delay)” value (MOLP-8 tumor xenografts) read?
A: The value was 18 days.

B1: IMGN901 (conjugate, chains of the INN, looked up)
VH: QVQLVESGGGVVQPGRSLRLSCAASGFTFSSFGMHWVRQAPGKGLEWVAYISSGSFTIYYADSVKGRFTISRDNSKNTLYLQMNSLRAEDTAVYYCARMRKGYAMDYWGQGTLVTVSS
VL: DVVMTQSPLSLPVTLGQPASISCRSSQIIIHSDGNTYLEWFQQRPGQSPRRLIYKVSNRFSGVPDRFSGSGSGTDFTLKISRVEAEDVGVYYCFQGSHVPHTFGQGTKVEIK
modifications: mertansine (DM1) conjugate
Q: For B1, which “patients with confirmed minor response (MR)” value [4] is on record?
A: Its value is 3 patients.
